Measurements taken from patent US9850225B2, “Compounds useful as immunomodulators” (BRISTOL-MYERS SQUIBB COMPANY, priority 2014, dated 2017).

Biological target: PD-1/PD-L1 interaction (PD-1-Ig / PD-L1-His) (Homo sapiens (Human), UniProt Q9NZQ7)
Test: PD-1/PD-L1 Homogenous Time-Resolved Fluorescence (HTRF) binding assay
Details: PD-1/PD-L1 HTRF binding assay; value given as range class; read-out: Range or IC50
Method in brief: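 Human PD-L1-His (10 nM final) was pre-incubated with inhibitor for 15 min, then PD-1-Ig (20 nM final) was added for a further 15 min in dPBS with 0.1% BSA and 0.05% Tween-20. Binding was detected by HTRF using Eu-cryptate anti-Ig (1 nM) and APC anti-His (20 nM).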

PD-1/PD-L1 interaction (PD-1-Ig / PD-L1-His), sequence (Q9NZQ7 other isoform, or with tags, fused parts or gaps): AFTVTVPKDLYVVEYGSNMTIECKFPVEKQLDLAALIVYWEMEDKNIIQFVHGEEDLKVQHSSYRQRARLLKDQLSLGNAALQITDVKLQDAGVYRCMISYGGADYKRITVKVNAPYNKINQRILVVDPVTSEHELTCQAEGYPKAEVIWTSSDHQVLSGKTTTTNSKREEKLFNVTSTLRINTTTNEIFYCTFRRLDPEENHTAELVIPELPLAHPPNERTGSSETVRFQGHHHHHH

Row | IC50 | Compound
1 | 100 to 20000 nM | CC(=O)NCCNCc1ccc(OCc2cccc(-c3ccccc3)c2C)cc1OCc1ccccc1C(F)(F)F [Example 1066, N-(2-((4-((2-methyl-[1,1′-biphenyl]-3-yl)methoxy)-2-((2-(trifluoromethyl)benzyl)oxy)benzyl)amino)ethyl)acetamide]
2 | 0.6 to 10 nM | COc1cc(OCc2cccc(-c3ccccc3)c2C)cc(OCc2cccc(C#N)c2)c1CN[C@H](C(=O)O)[C@H](C)O [Example 1136, (2S,3S)-2-((2-((3-cyanobenzyl)oxy)-6-methoxy-4-((2-methyl-[1,1′-biphenyl]-3-yl)methoxy)benzyl)amino)-3-hydroxybutanoic acid]
3 | 0.6 to 10 nM | C[C@@](CO)(NCc1ccc(OCc2cccc(-c3ccc4c(c3)OCCO4)c2Cl)cc1OCc1cccc(C#N)c1)C(=O)O [Example 1149, (S)-2-(4-(2-chloro-3-(2,3-dihydrobenzo[b][1,4]dioxin-6-yl)benzyloxy)-2-(3-cyanobenzyloxy)benzylamino)-3-hydroxy-2-methylpropanoic acid]
4 | 10 to 100 nM | Cc1c(COc2ccc(CNC(CO)(C(=O)O)C(C)C)c(OCc3cccc(C#N)c3)c2)cccc1-c1ccccc1 (stereo not shown) [Example 1020, 2-((2-((3-cyanobenzyl)oxy)-4-((2-methyl-[1,1′-biphenyl]-3-yl)methoxy)benzyl)amino)-2-(hydroxymethyl)-3-methylbutanoic acid]
5 | 100 to 20000 nM | CC(=O)NCCNCc1ccc(OCc2cccc(-c3ccccc3)c2C)cc1OCc1ccccc1CO [Example 1038, N-(2-((2-((2-(hydroxymethyl)benzyl)oxy)-4-((2-methyl-[1,1′-biphenyl]-3-yl)methoxy)benzyl)amino)ethyl)acetamide]
6 | 100 to 20000 nM | Cc1c(COc2ccc(CN[C@@](C)(CO)C(=O)O)c(OCc3cccc(C#N)c3)c2Cl)cccc1-c1ccc2c(c1)OCCO2 [Example 1238, (S)-2-((3-chloro-2-((3-cyanobenzyl)oxy)-4-((3-(2,3-dihydrobenzo[b][1,4]dioxin-6-yl)-2-methylbenzyl)oxy)benzyl)amino)-3-hydroxy-2-methylpropanoic acid]
7 | 0.6 to 10 nM | Cc1c(COc2ccc(CN[C@H](CO)C(=O)O)c(OCc3cccc(C#N)c3)c2)cccc1-c1ccc2c(c1)OCCO2 [Example 1122, (R)-2-(2-(3-cyanobenzyloxy)-4-(3-(2,3-dihydrobenzo[b][1,4]dioxin-6-yl)-2-methylbenzyloxy)benzylamino)-3-hydroxypropanoic acid]
8 | 0.6 to 10 nM | CCc1cc(CN[C@](C)(CO)C(=O)O)c(OCc2cccc(C#N)c2)cc1OCc1cccc(-c2ccc3c(c2)OCCO3)c1C [Example 1291, (R)-2-(2-(3-cyanobenzyloxy)-4-(3-(2,3-dihydrobenzo[b][1,4]dioxin-6-yl)-2-methylbenzyloxy)-5-ethylbenzylamino)-3-hydroxy-2-methylpropanoic acid]
9 | 100 to 20000 nM | CC(=O)NCCNCc1ccc(OCc2cccc(-c3ccccc3)c2C)cc1OCc1ccccc1F [Example 1048, N-(2-((2-((2-fluorobenzyl)oxy)-4-((2-methyl-[1,1′-biphenyl]-3-yl)methoxy)benzyl)amino)ethyl)acetamide]
10 | 0.6 to 10 nM | Cc1c(COc2cc(OCc3cncc(C#N)c3)c(CN3CC[C@@H](O)C[C@H]3C(=O)O)cc2Cl)cccc1-c1ccc2c(c1)OCCO2 [Example 2008, (2S,4R)-1-(5-chloro-2-((5-cyanopyridin-3-yl)methoxy)-4-((3-(2,3-dihydrobenzo[b][1,4]dioxin-6-yl)-2-methylbenzyl)oxy)benzyl)-4-hydroxypiperidine-2-carboxylic acid]
11 | 100 to 20000 nM | CC(=O)NCCNCc1ccc(OCc2cccc(-c3ccccc3)c2C)cc1OCc1cccc(C(=O)c2ccccc2)c1 [Example 1073, N-(2-((2-((3-benzoylbenzyl)oxy)-4-((2-methyl-[1,1′-biphenyl]-3-yl)methoxy)benzyl)amino)ethyl)acetamide]
12 | 0.6 to 10 nM | Cc1c(COc2cc(OCc3cccc(C#N)c3)c(CN3CCCC3C(=O)O)cc2Cl)cccc1-c1ccc2c(c1)OCCO2 (stereo not shown) [Example 1165, 1-(5-chloro-2-((3-cyanobenzyl)oxy)-4-((3-(2,3-dihydrobenzo[b][1,4]dioxin-6-yl)-2-methylbenzyl)oxy)benzyl)pyrrolidine-2-carboxylic acid]

More lines, now with the values behind:

Row | Compound | IC50
13 | Cc1c(COc2ccc(CN3CCCC[C@H]3C(=O)O)c(OCc3cccc(C#N)c3)c2Cl)cccc1-c1ccc2c(c1)OCCO2 [Example 1236, (S)-1-(3-chloro-2-(3-cyanobenzyloxy)-4-(3-(2,3-dihydrobenzo[b][1,4]dioxin-6-yl)-2-methylbenzyloxy)benzyl)piperidine-2-carboxylic acid] | 100 to 20000 nM
14 | Cc1cc(CN2CCCC[C@H]2C(=O)O)c(OCc2cccnc2)cc1OCc1cccc(-c2ccc3c(c2)OCCO3)c1C [Example 1279, (S)-1-(4-((3-(2,3-dihydrobenzo[b][1,4]dioxin-6-yl)-2-methylbenzyl)oxy)-5-methyl-2-(pyridin-3-ylmethoxy)benzyl)piperidine-2-carboxylic acid] | 0.6 to 10 nM
15 | Cc1c(COc2ccc(CN[C@](C)(CO)C(=O)O)c(OCc3cccc(C#N)c3)c2)cccc1-c1ccc2c(c1)OCCO2 [Example 1127, (R)-2-((2-((3-cyanobenzyl)oxy)-4-((3-(2,3-dihydrobenzo[b][1,4]dioxin-6-yl)-2-methylbenzyl)oxy)benzyl)amino)-3-hydroxy-2-methylpropanoic acid] | 0.6 to 10 nM
16 | Cc1cc(CN2CCCC[C@H]2C(=O)O)c(OCCCCC#N)cc1OCc1cccc(-c2ccc3c(c2)OCCO3)c1C [Example 1296, (S)-1-(2-(4-cyanobutoxy)-4-(3-(2,3-dihydrobenzo[b][1,4]dioxin-6-yl)-2-methylbenzyloxy)-5-methylbenzyl)piperidine-2-carboxylic acid] | 10 to 100 nM
17 | CC(=O)NCCNCc1ccc(OCc2cccc(-c3ccccc3)c2C)cc1OCc1ccc(-c2ccccc2C#N)cc1 [Example 1089, N-(2-((2-((2′-cyano-[1,1′-biphenyl]-4-yl)methoxy)-4-((2-methyl-[1,1′-biphenyl]-3-yl)methoxy)benzyl)amino)ethyl)acetamide] | 100 to 20000 nM
18 | COC(=O)c1ccc(OC)c(COc2cc(OCc3cccc(-c4ccc5c(c4)OCCO5)c3C)c(Cl)cc2CN2CCCC[C@H]2C(=O)O)c1 [Example 3026, (S)-1-(5-chloro-4-((3-(2,3-dihydrobenzo[b][1,4]dioxin-6-yl)-2-methylbenzyl)oxy)-2-((2-methoxy-5-(methoxycarbonyl)benzyl)oxy)benzyl)piperidine-2-carboxylic acid] | 100 to 20000 nM
19 | Cc1cc(OCc2cccc(-c3ccc4c(c3)OCCO4)c2C)cc(OCc2cccc(C#N)c2)c1CN[C@H](CO)C(=O)O [Example 1002, (R)-2-(2-(3-cyanobenzyloxy)-4-(3-(2,3-dihydrobenzo[b][1,4]dioxin-6-yl)-2-methylbenzyloxy)-6-methylbenzylamino)-3-hydroxypropanoic acid] | 0.6 to 10 nM
20 | Cc1c(COc2cc(OCc3cncc(C#N)c3)c(CN[C@H](CC(=O)O)C(=O)O)cc2Cl)cccc1-c1ccc2c(c1)OCCO2 [Example 3025, (R)-2-((5-chloro-2-((5-cyanopyridin-3-yl)methoxy)-4-((3-(2,3-dihydrobenzo[b][1,4]dioxin-6-yl)-2-methylbenzyl)oxy)benzyl)amino)succinic acid] | 0.6 to 10 nM
21 | N#Cc1cccc(COc2cc(OCc3cccc(-c4ccc5c(c4)OCCO5)c3Cl)ccc2CNC[C@@H](O)CC(=O)O)c1 [Example 1147, (S)-4-(4-(2-chloro-3-(2,3-dihydrobenzo[b][1,4]dioxin-6-yl)benzyloxy)-2-(3-cyanobenzyloxy)benzylamino)-3-hydroxybutanoic acid] | 0.6 to 10 nM
22 | CC(=O)NCCNCc1ccc(OCc2cccc(-c3ccccc3)c2C)cc1OC[C@@H]1CCC(=O)N1 [Example 1120, (S)—N-(2-((4-((2-methyl-[1,1′-biphenyl]-3-yl)methoxy)-2-((5-oxopyrrolidin-2-yl)methoxy)benzyl)amino)ethyl)acetamide] | 10 to 100 nM
23 | CC(=O)NCCNCc1ccc(OCc2cccc(-c3ccccc3)c2C)cc1OCc1ccc(F)c(F)c1 [Example 1059, N-(2-((2-((3,4-difluorobenzyl)oxy)-4-((2-methyl-[1,1′-biphenyl]-3-yl)methoxy)benzyl)amino)ethyl)acetamide] | 100 to 20000 nM
24 | CC(=O)NCCNCc1ccc(OCc2cccc(-c3ccccc3)c2C)cc1OCCO [Example 1030, N-(2-((2-(2-hydroxyethoxy)-4-((2-methyl-[1,1′-biphenyl]-3-yl)methoxy)benzyl)amino)ethyl)acetamide] | 100 to 20000 nM
25 | CC(=O)NCCNCc1ccc(OCc2cccc(-c3ccccc3)c2C)cc1OCc1cccc(C(=O)OC(C)(C)C)c1 [Example 1105, tert-butyl 3-((2-(((2-acetamidoethyl)amino)methyl)-5-((2-methyl-[1,1′-biphenyl]-3-yl)methoxy)phenoxy)methyl)benzoate] | 100 to 20000 nM
26 | N#Cc1cccc(COc2cc(OCc3cccc(-c4ccc5c(c4)OCCO5)c3C#N)c(Br)cc2CNC[C@@H](O)CC(=O)O)c1 [Example 1314, (S)-4-((5-bromo-4-((2-cyano-3-(2,3-dihydrobenzo[b][1,4]dioxin-6-yl)benzyl)oxy)-2-((3-cyanobenzyl)oxy)benzyl)amino)-3-hydroxybutanoic acid] | 0.6 to 10 nM
27 | Cc1cc(OCc2cccc(-c3ccc4c(c3)OCCO4)c2C)cc(OCc2cncc(C#N)c2)c1CN[C@@](C)(CO)C(=O)O [Example 1010, (S)-2-(2-((5-cyanopyridin-3-yl)methoxy)-4-(3-(2,3-dihydrobenzo[b][1,4]dioxin-6-yl)-2-methylbenzyloxy)-6-methylbenzylamino)-3-hydroxy-2-methylpropanoic acid] | 0.6 to 10 nM
28 | Cc1cc(CN2CCCC[C@H]2C(=O)O)c(OCc2cncc(C#N)c2)cc1OCc1cccc(-c2ccc3c(c2)OCCO3)c1Cl [Example 1152, (S)-1-(4-(2-chloro-3-(2,3-dihydrobenzo[b][1,4]dioxin-6-yl)benzyloxy)-2-((5-cyanopyridin-3-yl)methoxy)-5-methylbenzyl)piperidine-2-carboxylic acid] | 0.6 to 10 nM
